In the assay the target is T1, CsFAOMT1 (Camellia sinensis, UniProt A0A7J7GXF2).
T1 construct: gene HYC85_015345
Particulars: 1.0 mM Mg2+, pH 7.4, 40 °C, exact value in supplement.

Among the data in PMC10442441, “Characterization of two O-methyltransferases involved in the biosynthesis of O-methylated catechins in tea plant” (Nature Communications, 2023) are Km values, retold here.

Like-named read-outs stand apart in the source and are kept apart here.

T1 sequence (A0A7J7GXF2 entry or part of it): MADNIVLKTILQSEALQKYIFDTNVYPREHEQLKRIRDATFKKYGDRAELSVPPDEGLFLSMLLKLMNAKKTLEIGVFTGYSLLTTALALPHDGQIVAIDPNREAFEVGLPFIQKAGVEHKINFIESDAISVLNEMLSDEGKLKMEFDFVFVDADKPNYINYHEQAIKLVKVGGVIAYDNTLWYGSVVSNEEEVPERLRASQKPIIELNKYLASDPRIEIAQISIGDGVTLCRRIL

As a reminder, the Km is the concentration of substrate that gives half-maximal velocity. As for `O=c1c(O)c(-c2cc(O)c(O)c(O)c2)oc2cc(O)cc(O)c12` [myricetin], the Km (saturating SAM) is less than 4 µM.
On the same count and under the same terms, then `COC(=O)c1cc(O)c(O)c(O)c1` [methyl gallate], with less than 4 µM.
With `O=c1c(O[C@@H]2O[C@H](CO)[C@@H](O)[C@H](O)[C@H]2O)c(-c2ccc(O)c(O)c2)oc2cc(O)cc(O)c12` [isoquercitrin], for the setting “1 mM SAM”, the Km was greater than 2500 µM.
